Assay results: the NIST ThermoML archive (doi:10.1021/je5010643)

Experiment: xn = mol fraction of the nth substance listed
Settings: 101.32 kPa, Liquid; for speed of sound: Frequency=3 MHz, Linear variable-path acoustic interferometer

CC(C)C(=O)O [2-methylpropanoic acid] + C1COCCO1
Settings	mass density [kg/m3]	speed of sound [m/s]
295.15 K, x2 = 0	945.28	1100.2
295.15 K, x2 = 0.1	955.63	1119.6
295.15 K, x2 = 0.2	965.46	1140
295.15 K, x2 = 0.3	975.08	1161.7
295.15 K, x2 = 0.4	984.2	1184.5
295.15 K, x2 = 0.5	993.05	1208.8
295.15 K, x2 = 0.6	1001.52	1234.7
295.15 K, x2 = 0.7	1009.56	1262.3
295.15 K, x2 = 0.8	1017.23	1291.8
295.15 K, x2 = 0.9	1024.38	1323.6
298.15 K, x2 = 0	942.22	1086
298.15 K, x2 = 0.1	952.65	1105.4
298.15 K, x2 = 0.2	962.63	1125.9
298.15 K, x2 = 0.3	972.12	1147.5
298.15 K, x2 = 0.4	981.18	1170.5
298.15 K, x2 = 0.5	989.97	1194.9
298.15 K, x2 = 0.6	998.46	1220.8
298.15 K, x2 = 0.7	1006.5	1248.6
298.15 K, x2 = 0.8	1014.12	1278.3
298.15 K, x2 = 0.9	1021.3	1310.3
301.15 K, x2 = 0	939.16	1072.1
301.15 K, x2 = 0.1	949.87	1091.5
301.15 K, x2 = 0.2	959.66	1111.9
301.15 K, x2 = 0.3	969.21	1133.6
301.15 K, x2 = 0.4	978.18	1156.6
301.15 K, x2 = 0.5	986.93	1181.1
301.15 K, x2 = 0.6	995.31	1207.2
301.15 K, x2 = 0.7	1003.43	1235
301.15 K, x2 = 0.8	1011.08	1264.9
301.15 K, x2 = 0.9	1018.24	1297.1
304.15 K, x2 = 0	936.1	1058.2
304.15 K, x2 = 0.1	946.87	1077.6
304.15 K, x2 = 0.2	956.7	1098
304.15 K, x2 = 0.3	966.21	1119.7
304.15 K, x2 = 0.4	975.19	1142.8
304.15 K, x2 = 0.5	983.97	1167.3
304.15 K, x2 = 0.6	992.36	1193.4
304.15 K, x2 = 0.7	1000.47	1221.5
304.15 K, x2 = 0.8	1008.1	1251.5
304.15 K, x2 = 0.9	1015.19	1283.9
307.15 K, x2 = 0	933.04	1043.4
307.15 K, x2 = 0.1	943.94	1062.8
307.15 K, x2 = 0.2	953.7	1083.4
307.15 K, x2 = 0.3	963.19	1105.1
307.15 K, x2 = 0.4	972.14	1128.3
307.15 K, x2 = 0.5	981.02	1152.9
307.15 K, x2 = 0.6	989.41	1179.3
307.15 K, x2 = 0.7	997.53	1207.5
307.15 K, x2 = 0.8	1005.12	1237.9
307.15 K, x2 = 0.9	1011.87	1270.7
310.15 K, x2 = 0	929.98	1030.8
310.15 K, x2 = 0.1	941.03	1050.1
310.15 K, x2 = 0.2	950.89	1070.6
310.15 K, x2 = 0.3	960.24	1092.3
310.15 K, x2 = 0.4	969.24	1115.4
310.15 K, x2 = 0.5	978.07	1139.9
310.15 K, x2 = 0.6	986.45	1166.3
310.15 K, x2 = 0.7	994.54	1194.5
310.15 K, x2 = 0.8	1002.1	1224.9
310.15 K, x2 = 0.9	1008.86	1257.7
313.15 K, x2 = 0	926.92	1015.2
313.15 K, x2 = 0.1	938.11	1034.6
313.15 K, x2 = 0.2	947.93	1055.1
313.15 K, x2 = 0.3	957.22	1076.9
313.15 K, x2 = 0.4	966.21	1100.2
313.15 K, x2 = 0.5	975.03	1125
313.15 K, x2 = 0.6	983.45	1151.6
313.15 K, x2 = 0.7	991.62	1180.1
313.15 K, x2 = 0.8	999.14	1210.9
313.15 K, x2 = 0.9	1005.92	1244.2
